Like-named read-outs stand apart in the source and are kept apart here.
Legend:
[1] = test system: thermal nociceptive stimulus (heat applied to the tail) in mice; assay: Mouse tail flick analgesic testing; format: in vivo; details: s.c.
Source text: (b) Mouse Tail Flick Analgesic Testing
Tail flick testing in mice is modified after D'Amour and Smith, J. Pharmacol. Exp. Ther., 72, 74-79 (1941), using controlled high intensity heat applied to the tail. Each mouse is placed in a snug-fitting metal cylinder, with the tail protruding through one end. This cylinder is arranged so that the tail lies flat over a concealed heat lamp. At the onset of testing, an aluminum flag over the lamp is drawn back, allowing the light beam to pass through the slit and focus onto the end of the tail. A timer is simultaneously activated. The latency of a sudden flick of the tail is ascertained. Untreated mice usually react within 3-4 seconds after exposure to the lamp. The end point for protection is 10 seconds. Each mouse is tested at 0.5 and 2 hours after treatment with morphine and the test compound. Morphine has an MPE5 50 of 3.2-5.6 mg./kg. (s.c.).
(§1) Results of the above tests are recorded as percent maximum possible effect (% MPE). The % MPE of each group is statistically compared to the % MPE of the standard and the predrug control values. The % MPE is calculated as follows: [formula]
(§2) The analgesic activity is reported in terms of MPE50, the dose at which half of the maximal possible analgesic effect is observed in a given test.

[2] = test system: thermal nociceptive stimulus (hot plate, 57° C.) in mice; assay: Mouse hot plate analgesic testing; format: in vivo; details: s.c.
Protocol: (a) Mouse Hot Plate Analgesic Testing
The method used is modified after Woolfe and MacDonald, J. Pharmacol. Exp. Ther., 80, 300-307 (1944). A controlled heat stimulus is applied to the feet of mice on a 1/8" think aluminum plate. A 250 watt reflector infrared heat lamp is place under the bottom of the aluminum plate. A thermal regulator, connected to thermistors on the plate surface, programs the heat lamp to maintain a constant temperature of 57° C. Each mouse dropped into a glass cylinder (61/2" diameter) resting on the hot plate, and timing is begun when the animal's feet touch the plate. At 0.5 and 2 hours after treatment with the test compound the mouse is observed for the first "flicking" movements of one or both hind feet or until 10 seconds elapse without such movements. Morphine has an MPE50 =4-5.6 mg./kg. (s.c.).
as §1, §2

[3] = test system: rabbits; details: 20 mg./kg.; cited from earlier work
[4] = test system: phenylbenzoquinone irritant-induced writhing in mice; assay: Suppression of phenylbenzoquinone (PBQ) irritant-induced writhing; format: in vivo, mice (Carworth Farms CF-1); details: Mus musculus, read-out: ED50 in PBQ Writhing Test
Protocol: The analgesic properties of the compounds of this invention are determined by tests using thermal nociceptive stimuli, such as the mouse tail flick procedure, or chemical nociceptive stimuli, such as measuring the ability of a compound to suppress phenylbenzoquinone irritant-induced writhing in mice. These tests and others are described below.
Suppression of Phenylbenzoquinone Irritant-Induced Writhing
Groups of 5 Carworth Farms CF-1 mice are pretreated subcutaneously or orally with saline, morphine, codine or the test compound. Twenty minutes (if treated subcutaneously) or fifty minutes (if treated orally) later, each group is treated with intraperitoneal injection of phenylbenzoquinone, an irritant known to produce abdominal contractions. The mice are observed for 5 minutes for the presence or absence of writhing starting 5 minutes after the injection of the irritant. MPE50 's of the drug pretreatments in blocking writhing are ascertained.
as §1, §2
The analgesic activity of several compounds of the invention in the above described test for suppresion of phenylbenzoquinone (PBQ) irritant-inducedwrithing are set forth below in Table I.

[5] = test system: animal pharmacology; details: in vivo; cited from earlier work
[6] = oral, fifty minutes pretreatment
[7] = sc, subcutaneous, twenty minutes pretreatment

CN1CC[C@]23c4c5ccc(O)c4O[C@H]2[C@@H](O)C=C[C@H]3[C@H]1C5 [Morphine]
MPE50 (printed MPE5 50) [1]: 3.2 to 5.6 mg/kg | MPE50 [2]: 4 to 5.6 mg/kg

CCCCCc1cc2c(cc1O)C1=C(CCC(C)C1)C(C)(C)O2 (centres unmarked) [6,7,8,9-tetrahydro-2-hydroxy-3-n-amyl-6,6,9-trimethyldibenzo[b,d]pyran]
activity in rabbits [3]: inactive

CC(CCCc1ccccc1)c1cc2c(cc1O)C1=C(CCCC1)C(C)(C)O2 (racemic) [Example 16, dl-7,8,9,10-Tetrahydro-2-hydroxy-6,6-dimethyl-3-(1-methyl-4-phenylbutyl)-6H-dibenzo[b,d]pyran]
ED50 [4, 6]: 10 mg/kg

CC(CCCc1ccccc1)c1cc2c(cc1O)C1=C(CCCC1O)C(C)(C)O2 (racemic) [Example 21, dl-7,8,9,10-Tetrahydro-2,10α-dihydroxy-6,6-dimethyl-3-(1-methyl-4-phenylbutyl)-6H-dibenzo[b,d]pyran]
ED50 [4, 6]: 10 mg/kg

CC(CCCc1ccccc1)c1cc2c(cc1O)[C@@H]1C(=O)CCC[C@@H]1C(C)(C)O2 (relative stereo) [Example 9A, dl-cis-6a,7,8,9,10,10a-Hexahydro-2-hydroxy-6,6-dimethyl-3-(1-methyl-4-phenylbutyl)-10-oxo-6H-dibenzo[b,d]pyran]
ED50 [4, 7]: 10 to 32 mg/kg

CCCCCc1cc(O)c2c(c1)N(C)C(C)(C)C1=C2CC(C)CC1 (centres unmarked) [7,8,9,10-tetrahydro-1-hydroxy-5,6,6,9-tetramethyl-3-n-pentylphenanthridine]
activity in animal pharmacology [5]: completely inert

CC(CCCc1ccccc1)c1cc2c(cc1O)C1C(O)CCCC1C(C)(C)O2 (mixture of isomers) [Example 11, dl-cis-6a,7,8,9,10a-Hexahydro-2,10-dihydroxy-6,6-dimethyl-3-(1-methyl-4-phenylbutyl)-6H-dibenzo[b,d]pyran]
ED50 [4, 7]: 27 mg/kg
